Common to all, as to format: in vivo
Assay [1] deals with R-strain of Pseudocercosporella herpotrichoides. Description: Pseudocercosporella herpotrichoides test; R-strain (wheat)/protective. The note with it: protective, application rate 250 g/ha, evaluation 21 days after inoculation. The method, then:
Pseudocercosporella herpotrichoides Test; R-Strain (Wheat)/Protective
(§1) To produce a suitable preparation of active compound, 1 part by weight of active compound is mixed with the stated amounts of solvent and emulsifier and the concentrate is diluted with water to the desired concentration.
To test for protective activity, young plants are sprayed with the preparation of active compound at stated application rates.
After the spray-coating has dried on, the plants are inoculated at the base of the stem with spores of the R-strain of Pseudocercosporella herotrichoides.
The plants are placed in a greenhouse at a temperature of approximately 10° C. and a relative atmospheric humidity of approximately 80%.
Evaluation is carried out 21 days after the inoculation. 0% means an efficacy which corresponds to that of the control, while an efficacy of 100% means that no infection is observed.

The test system of assay [2] is caterpillars of the owlett moth (Spodoptera frugiperda). Description: Spodoptera test. The note with it: cabbage leaves dipped, active compound concentration 0.1 %. The method, then:
(§2) To produce a suitable preparation of active compound, 1 part by weight of active compound is mixed with the stated amount of solvent and the stated amount of emulsifier, and the concentrate is diluted with water to the desired concentration.
Cabbage leaves (Brassica oleracea) are treated by being dipped into the preparation of active compound of the desired concentration and are populated with caterpillars of the owlett moth (Spodoptera frugiperda) while the leaves are still moist.
After the desired period of time, the kill in % is determined. 100% means that all the caterpillars have been killed; 0% means that none of the caterpillars have been killed.

For assay [3], the system named is Venturia inaequalis. Description: Venturia test (apple)/protective (Example K, application rate). The conditions noted are these: protective, application rate 100 g/ha, evaluation 12 days after inoculation. The method, then:
Venturia Test (Apple)/Protective
(§3) To produce a suitable preparation of active compound, 1 part by weight of active compound is mixed with the stated amounts of solvent and emulsifier, and the concentrate is diluted with water to the desired concentration.
To test for protective activity, young plants are sprayed with the preparation of active compound at the stated application rate. After the spray-coating has dried on, the plants are inoculated with an aqueous Conidia suspension of the causative organism of apple scab Venturia inaequalis and then remain in an incubation cabin at approximately 20° C. and 100% relative atmospheric humidity for 1 day.
The plants are subsequently placed in a greenhouse at approximately 21° C. and a relative atmospheric humidity of approximately 90%.
Evaluation is carried out 12 days after the inoculation. 0% means an efficacy which corresponds to that of the control, while an efficacy of 100% means that no infection is observed.

The test system of assay [4] is Plasmopara viticola. Description: Plasmopara test (grape vines)/protective. The note with it: protective, application rate 100 g/ha, evaluation 6 days after inoculation. The method, then:
Plasmopara Test (Grape Vines)/Protective
as §1
To test for protective activity, young plants are sprayed with the preparation of active compound at the stated application rate. After the spray-coating has dried on, the plants are inoculated with an aqueous spore suspension of Plasmopara viticola and then remain in an incubation cabin at approximately 20° C. and 100% relative atmospheric humidity for 1 day. The plants are subsequently placed in a greenhouse at approximately 21° C. and approximately 90% relative atmospheric humidity for 5 days. The plants are then moistened and placed in an incubation cabin for 1 day.
Evaluation is carried out 6 days after the inoculation. 0% means an efficacy which corresponds to that of the control, while an efficacy of 100% means that no infection is observed.

In assay [5] the test system is Pyrenophora teres. Description: Pyrenophora teres test (barley)/protective. The conditions noted are these: protective, application rate 125 g/ha, evaluation 7 days after inoculation. The method, then:
Pyrenophora teres Test (Barley)/Protective
as §3
To test for protective activity, young plants are sprayed with the preparation of active compound at the stated application rate.
After the spray-coating has dried on, the plants are sprayed with a conidia suspension of Pyrenophora teres.
The plants remain in an incubation cabin at 20° C. and 100% relative atmospheric humidity for 48 hours.
The plants are placed in a greenhouse at a temperature of approximately 20° C. in a relative atmospheric humidity of approximately 80%.
Evaluation is carried out 7 days after the inoculation. 0% means an efficacy which corresponds to that of the untreated control, while an efficacy of 100% means that no infection is observed.

Assay [6] deals with peach aphids (Myzus persicae). Description: Myzus test. The conditions noted are these: infested cabbage leaves dipped, active compound concentration 0.1 %. As for the experimental part: as §2
Cabbage leaves (Brassica oleracea) which are heavily infested by peach aphids (Myzus persicae) are treated by being dipped into the preparation of active compound of the desired concentration.
After the desired period of time, the kill in % is determined. 100% means that all the aphids have been killed, 0% means that none of the aphids have been killed.

SMILES strings stand for the structures.

For the compound `C/C(=N\OCc1ccccc1NC(=O)c1cn(C)nc1C)c1cccc(C(F)(F)F)c1`, in assay [1], the Efficacy in % was 90%. In the case of `Cc1ccc(OCc2ccccc2NC(=O)c2cn(C)nc2C)cc1`, in assay [2], the “Degree of kill in % after 7 d” value is listed as 100%.

Regarding `CC1=C(C(=O)Nc2ccccc2Oc2ccccc2)SCCO1`, in assay [3], the Efficacy in % was 100%. With `Cc1ccc(SCc2ccccc2NC(=O)c2ccccc2C(F)(F)F)cc1`, in assay [4], the Efficacy in % was found to be 95%. In turn, `CC1=C(C(=O)Nc2ccccc2CSc2ccccc2)SCCO1` yielded an Efficacy in % in assay [4] of 90%. As for `Cn1cc(C(=O)Nc2ccccc2C=Cc2ccccc2)c(C(F)F)n1` [drawing 528], the Efficacy in % in assay [5] came out at 83%. In turn, `Cc1ccc(SCc2ccccc2NC(=O)c2cn(C)nc2C(F)F)cc1` [drawing 529] registered an Efficacy in % in assay [5] of 75%. As for `Cc1cccc(OCc2ccccc2NC(=O)c2cn(C)nc2C(F)(F)F)c1` [drawing 539], the “Degree of kill in % after 7 d” value in assay [6] is 95%.

These data come from patent US6716881B2, “Carbanilides used as pesticides” (Bayer Aktiengesellschaft, priority 1996, dated 2004).
